# Experimental data reported in patent publication US4315010A, “Glaucine phosphate salts” (priority 1979, dated 1982).
# Counter-ions that a name gives are not always drawn. Like-named read-outs stand apart in the source and are kept apart here.
# Legend:
# [1] = type: physicochemical; settings: for Percentage Remaining after 3 months at, 40° C. / Percentage Remaining after 3 months at, 50° C. / Percentage Remaining after 3 months at, Ambient / assay after 12 months: syrup; for Percentage Remaining after 3 months at, 40° C. / Percentage Remaining after 3 months at, 50° C. / Percentage Remaining after 3 months at, Ambient: 131400 min; for assay after 12 months: 525600 min; for percent of original concentration retained in syrup: one month, d,l-glaucine phosphate 0.6 percent, others 0.2 percent, 43800 min
# Method: Stability of d,l-glaucine phosphate was examined in the syrup vehicle of Example 4.
# Syrups containing codeine phosphate, 0.2 percent contained 97.5, 104.5 or 100 percent, respectively, after one month at ambient temperature, 40° C. or 55° C. […] After three months, the percentage amount of antitussive agent remaining was as shown below.
# guinea pigs [2] = assay: Antitussive test, citric acid aerosol-induced cough, oral dosing; type: in vivo; settings: for ED50: Cavia porcellus, po, 1 h; for 95 percent confidence limits of the ED50: antitussive
# Method: Separate groups of guinea pigs were orally administered various doses of a test compound, or distilled water for a control group. One hour after oral dosing, the guinea pigs were exposed to a 5 percent aerosol of citric acid for a 10 minute test period. The number of cough responses produced during the last five minutes of exposure to the citric acid aerosol was recorded and the dosage effect to suppress coughing in 50 percent of the guinea pigs (ED50) was calculated. An antitussive effect was recorded for a guinea pig when its total number of coughs during the 5 minute test period were at least two standard deviation units below the mean number of coughs per guinea pig in the control group. […];
# guinea pigs [3] = assay: Antitussive test, citric acid aerosol-induced cough, intraperitoneal injection; type: in vivo; settings: Cavia porcellus, ip
# [4] = Solubility in cough syrup vehicle; type: physicochemical; settings: cough syrup vehicle of Example 4
# Method: A cough syrup vehicle formulation was prepared containing the following pharmaceutically-acceptable excipients:
# Water g.s. to 4 liters total
# [5] = Stability of syrup under continuous light in amber and flint glass bottles; type: physicochemical; settings: one month, ambient temperature, continuous light about 2000 Foot-candles, 43800 min
# Method: In a procedure similar to that of Example 5, syrup formulations were prepared, placed in amber glass bottles and transparent (flint) glass bottles, and held under conditions of ambient temperature with continuous exposure to light. (About 2000 Foot-candles of combined fluorescent and incandescent light, for 24 hours/day.)
# monkeys = assay: Abuse potential, self-administration in codeine-habituated monkeys (Deneau et al.); type: in vivo; settings: codeine 100 micrograms/kilogram per injection; d,l-glaucine phosphate substituted at 50, 100, 200 and 400 micrograms per kilogram injection
# Source text: The abuse potential of d,l-glaucine phosphate was studied in two monkeys in a procedure similar to that described by Deneau, et al., Psychopharmacologia 16(1):30-48, 1969.
# In this procedure, the test monkeys are restrained and a catheter inserted into the external jugular vein for injection of test substances in response to pressing a bar lever by the monkey. The test monkeys are first habituated to self-administer codeine at a rate of 100 micrograms/kilogram per injection. The self-administration rate of the two monkeys so trained and habituated was about 100 to 150 lever pushes per two hour session at the 100 microgram codeine level. […]
# mice [6] = type: in vivo; settings: naloxone 100 mg/kg intraperitoneal after last dose
# Method: Physical dependency liability was evaluated in mice by the procedure of Saelens, et al., Arch. Int. Pharmacodynam, 190:213-218, 1971. In this procedure, mice are administered increasing doses of a test compound at intervals on two consecutive days. The last dosage on the second day is followed by intraperitoneal injection of the morphine antagonist, naloxone, at a dosage of 100 mg/kg, and the mice are observed for characteristic jumping behaviour indicative of opiate withdrawals or morphine antagonism.
# Acute lethality in mice = settings: mouse, in vivo, oral, mortality within 72 hours
# Method: In other operations, various dosages of d,l-glaucine phosphate (2:3) were administered to groups mice by the oral route or by intraperitoneal injection, and the dosage which is lethal to 50 percent of the mice (LD50) was calculated from the mortality observations within 72 hours after administration.
# [7] = Therapeutic ratio LD50/ED50; type: in vivo; settings: mouse LD50, guinea pig ED50
# mice [8] = assay: Analgesic activity, phenyl-p-quinone mouse writhing test (printed "writing test"); type: in vivo; settings: 0.5 h, oral, 30 minutes prior to phenyl-p-quinone challenge
# Method: Text compounds were evaluated for analgesic activity in the phenyl-p-quinone mouse writing test of Hendershot & Forsaith, J. Pharmacol. Exptl. Therap. 125(3) 237 (1959). The test compounds were administered orally 30 minutes prior to the phenyl-p-quinone challenge. In these operations, the oral ED50 's for d-glaucine. […]
# [9] = Plasma concentrations of l- or d-glaucine after oral administration; type: in vivo; settings: guinea pigs
# Method: In other operations, l- and d-glaucine phosphate (2:3) were orally administered to separate guinea pigs and plasma concentrations of l- or d-glaucine were measured at intervals after dosing.
# [10] = listed as d,1-Glaucine . HBr, hydrobromide
smiles,measurement,setting,value
"COc1cc2c(cc1OC)-c1c(OC)c(OC)cc3c1C(C2)N(C)CC3 (racemic) [d,l-glaucine hydrobromide]","Percentage Remaining after 3 months at, 40° C.","[1]; 40° C., listed as d,1-Glaucine . HBr, hydrobromide",93.3 Percentage
same,"Percentage Remaining after 3 months at, 50° C.",[1]; [10],91.4 Percentage
same,"Percentage Remaining after 3 months at, Ambient",[1]; [10],100.8 Percentage
same,assay after 12 months,"[1]; 55° C., hydrobromide",87.3%
same,percent of original concentration retained in syrup,"[1]; 40° C., hydrobromide",96%
same,percent of original concentration retained in syrup,"[1]; 55° C., hydrobromide",89.5%
same,percent of original concentration retained in syrup,"[1]; ambient temperature, hydrobromide",99%
"COc1cc2c(cc1OC)-c1c(OC)c(OC)cc3c1C(C2)N(C)CC3 (racemic) [d,l-glaucine phosphate, d,l-Glaucine Phosphate]",ED50,"guinea pigs [2]; restated in the description, read-out: oral ED50, antitussive",17.8 mg/kg
same,95 percent confidence limits of the ED50,guinea pigs [2],6.0-53.1 milligrams per kilogram
same,ED50,guinea pigs [3],17.3 mg/kg
same,solubility,[4],10000 µg/mL
same,solubility in cough syrup vehicle per 5 milliliter dosage unit,[4],about 50 milligrams per 5 milliliter dosage unit
same,"Percentage Remaining after 3 months at, 40° C.",[1]; 40° C.,101.1 Percentage
same,"Percentage Remaining after 3 months at, 50° C.",[1],98.7 Percentage
same,"Percentage Remaining after 3 months at, Ambient",[1],101.6 Percentage
same,assay after 12 months,"[1]; 55° C., listed as phosphate salt",101.8%
same,percent of original concentration retained in syrup,[1]; 40° C.,100.0%
same,percent of original concentration retained in syrup,[1]; 55° C.,98.4%
same,percent of original concentration retained in syrup,[1]; ambient temperature,101.3%
same,assay of syrup in amber glass bottles,[5]; amber glass,97.7%
same,assay of syrup in transparent (flint) glass bottles,[5]; flint glass,90%
same,monkey response rate (self-administration),monkeys,10-20 responses/two hour session
same,mice jumping after naloxone treatment,mice [6],no jumping behaviour in any of the eight mice tested
same,LD50 at 72 h,Acute lethality in mice,≥ 681 mg/kg
same,therapeutic ratio (LD50/ED50),[7]; intraperitoneal,10
same,therapeutic ratio (LD50/ED50),[7]; oral antitussive activity,38
same,ED50,mice [8],23 mg/kg
COc1ccc2c3c1O[C@H]1[C@@H](O)C=C[C@H]4[C@@H](C2)N(C)CC[C@@]341 [codeine phosphate],95 percent confidence limits of the ED50,guinea pigs [2],52.3-232.6 milligrams per kilogram
same,"Percentage Remaining after 3 months at, 40° C.",[1]; 40° C.,101.1 Percentage
same,"Percentage Remaining after 3 months at, 50° C.",[1],88.4 Percentage
same,"Percentage Remaining after 3 months at, Ambient",[1],101.3 Percentage
same,percent of original concentration retained in syrup,[1]; 40° C.,104.5%
same,percent of original concentration retained in syrup,[1]; 55° C.,100%
same,percent of original concentration retained in syrup,[1]; ambient temperature,97.5%
same,mice jumping after naloxone treatment,mice [6],2 of 6
same,total jumps after naloxone treatment,mice [6],23 jumps total
"COc1ccc2c3c1O[C@H]1[C@@H](O)C=C[C@H]4[C@@H](C2)N(C)CC[C@@]341 [codeine, reference compound]",monkey response rate (self-administration),monkeys,100-150 responses/two hour session
"COc1cc2c(cc1OC)-c1c(OC)c(OC)cc3c1[C@H](C2)N(C)CC3 [d-glaucine phosphate, reference compound]","ED50, dosage effect to suppress coughing in 50 percent of the guinea pigs","guinea pigs [2]; one hour before 5 percent citric acid aerosol, 60 min",170.1 milligrams per kilogram
"COc1cc2c(cc1OC)-c1c(OC)c(OC)cc3c1[C@@H](C2)N(C)CC3 [l-glaucine phosphate, l-glaucine phosphate (2:3)]",ED50,"guinea pigs [2]; one hour before 5 percent citric acid aerosol, read-out: ED50, dosage effect to suppress coughing in 50 percent of the guinea pigs",10.9 mg/kg
same,95 percent confidence limits of the ED50,guinea pigs [2],0.4-33.8 milligrams per kilogram
same,time within which high plasma levels of glaucine were produced,[9],≤ 15 min
